Test results taken from article PMC4010398, “A Phase I Clinical Trial of Systemically Delivered NEMO Binding Domain Peptide in Dogs with Spontaneous Activated B-Cell like Diffuse Large B-Cell Lymphoma” (PLoS ONE, 2014).
“Also recorded” adds a separate entry of the source.

Key:
[1] = test system: NF-κB target genes (A1, c-FLIP, XIAP, Bcl-XL, Bcl-2 and A20); assay: qRT-PCR of pro-survival NF-κB target genes in malignant lymph nodes; assay type: in vivo, dog
Procedure: (§1) Lymph node biopsies were immediately placed in RNAlater (Ambion, Austin, TX) and stored at –80°C prior to RNA extraction. Total RNA extraction was performed using the RNeasy Mini Kit (Qiagen, Valencia, CA). Reverse transcription was performed using random hexamers and Superscript II reverse transcriptase (Invitrogen Corp., Carlsbad. CA, USA) according to the manufacturer's instructions. Primer sequences for canine A1, A20, Bcl-XL, c-FLIP, Cyclin D1, Bcl-2, XIAP and β-actin have been previously described, [35]. Primers were synthesized by Invitrogen Corp. Real-time PCR assays were performed using SYBR Green (Fermentas, Glen Burnie, Maryland). Samples were run in triplicate using standard conditions on an ABI 7500 sequence detector (Applied Biosystems, Carlsbad, CA) and data were analyzed using β-actin as an endogenous control. Dissociation curves were performed after each experiment to confirm the specificity of product amplification. Statistical analysis was performed using a two-tailed Student's ‘t’ test where statistical significance = p<0.05.

malignant node = conditions: local, intranodal administration; cited from earlier work
Excerpt: (§2) Pet dogs that develop Non-Hodgkins Lymphoma (NHL) are recognized as a clinically relevant, spontaneous large animal model of the human disease, [27]–[31]. […] Furthermore, tissue microarrays from lymphomatous canine tissue confirmed the presence of constitutive NF-κB activity and pharmacological inhibition of IKK leads to in ...

[2] = test system: primary malignant canine B cells; conditions: in vitro, cited from earlier work
Excerpt: as §2

Cyclin D1 = assay: qRT-PCR of Cyclin D1 in malignant lymph node biopsies; assay type: in vivo, dog; conditions: 24 hour post-peptide biopsy normalized to pre-treatment; β-actin control, triplicate
Procedure: as §1

malignant lymph nodes [3] = assay: TUNEL staining of malignant lymph node biopsies; assay type: in vivo, dog; conditions: 24 hours post peptide vs pre; tissue available from 9 dogs
Procedure: (§3) Immunohistochemical analysis was performed on 5 micron sections of formalin fixed paraffin embedded lymph node tissue from dogs with spontaneous DLBCL using a DAKO automatic universal staining system. Sections were heated in a 60°C oven for 1 hour, depararaffinized in PRO PAR clearant and rehydrated in progressively decreasing grades of ethanol. Antigen retrieval was performed by boiling sections in sodium citrate buffer, pH ∼9.0 for 15 minutes. Endogenous peroxidase was blocked with 3% hydrogen peroxide. For Ki67 staining, a 1∶50 dilution of a monoclonal mouse anti-human antibody (Clone MIB-1, DAKO) was used and immunodetection was performed using a biotinylated goat anti-rabbit/anti-mouse immunoglobulin and SA-HRP (LSAB2 kit, DAKO, Carpinteria, CA). For IRF-4 staining, a 1∶200 dilution of a polyclonal mouse anti human antibody (DAKO, M7259) was used and immunodetection was performed using a peroxidase polymer conjugated anti-mouse secondary antibody system (ImmPRESS Anti-mouse Ig peroxidase polymer detection kit). In all cases, antibody binding was detected using 3,3′-diaminobenzidine solution and tissues were counterstained with hematoxylin. Slides were viewed using a Nikon E600 infinity corrected upright microscope. […] Apoptotic cells were detected using the cell death detection kit (Roche, Indianapolis, IA) following the manufacturer's instructions. […]

[4] = test system: dogs with spontaneous ABC-like DLBCL; assay: Phase I 3+3 dose escalation: adverse events and toxicity (VCOG-CTCAE); assay type: in vivo, dog
Excerpt: The clinical trial protocol was fully approved by the University of Pennsylvania's Institutional Animal Care and Use Committee (Privately Owned Animal Protocol number: 803765). Only dogs with full written informed owner consent were eligible for enrollment. […] The histopathological diagnosis of DLBCL and cytological confirmation of large B cell lymphoma were made by board certified veterinary pathologists (M.G., and A.D., see acknowledgements) and by a board certified clinical pathologist (R.P.) respectively. Only dogs with DLBCL and constitutive NF-κB activity within their malignant lymph nodes as determined by the presence of phospho-IKK, phospho-IκBα and phospho-p65 were eligible to receive NBD peptide.
(§4) Tumor burden was calculated by measuring three dimensions (length, width and height) for each malignant lymph node. The mass of each node was calculated as previously described and the sum of measured lymph node mass was considered as total tumor mass. Response to NBD peptide was evaluated according to the Veterinary Cooperative Oncology Group criteria for assessment of response in peripheral nodal lymphoma, adapted for use in dogs from the published RECIST criteria. The Veterinary Cooperative Oncology Group Common Terminology for Adverse Events, version 1.0 was used to grade adverse events.

Ki67 = Ki67 immunohistochemistry of malignant lymph node biopsies; assay type: in vivo, dog; conditions: 24 hours post peptide vs pre; 10 high power fields
Procedure: as §3

[5] = test system: dogs with spontaneous ABC-like DLBCL; assay: Clinical response and survival after NBD peptide plus chemotherapy; assay type: in vivo, dog
Procedure: as §4

[6] = test system: constitutive canonical NF-κB signaling (phospho-IKKα/β:IKKβ); assay: Immunoblot and densitometry of phospho-IKK in malignant lymph node biopsies, pre and 24 h post peptide; assay type: in vivo, dog; conditions: malignant lymph node biopsy 24 hours after single 1 h i.v. infusion, 0.5-2 mg/kg, vs pre-treatment; paired samples from ten of eleven dogs
Procedure: Lymph node biopsy samples were mechanically dissociated in RPMI and red blood cells were removed using ACK lysis buffer (Gibco) according to manufacturer's instructions. Cells were lysed in 50 mM Tris-HCL containing 1% NP-40, 150 mM NaCl, 2.5 mM EDTA, 5% glycerol, a 1∶50 dilution of Protease Inhibitor Cocktail and 1∶50 dilutions of Phosphatase Inhibitor Cocktails 2 and 3 (Sigma-Aldrich, Saint Louis, MO). Samples were centrifuged and protein concentrations were determined by micro BCA assay (Thermo Scientific, Rockford, IL). Proteins from whole cell extracts were separated by SDS-PAGE (10%) followed by transfer to PVDF membrane. Membranes were probed with polyclonal rabbit anti-human antibodies against phospho-IKKα/β (16A6), IKKβ (L570), phospho-IκBα (14D4), mouse anti-human IκBα (L35A5) and β-actin (4967) (Cell Signaling, Danvers, MA). An HRP-conjugated donkey anti-rabbit or anti-mouse IgG was used as the secondary detection antibody (Amersham, Piscataway, NJ). Blots were developed using ECL Plus (Amersham, Piscataway, NJ). Densitometry was performed using ImageJ software and integrated density values for each band were obtained using the Analyze Particles function.

[7] = Hematological and biochemical parameters before and one week after treatment; assay type: in vivo, dog
Procedure: In this phase I dose escalation clinical trial, both treatment-naïve and relapsed dogs were enrolled. NBD peptide was administered according to a standard 3+3 trial design. […] Peptide was reconstituted to 50 mM in sterile DMSO and diluted in 20 mls of lactated Ringers solution immediately prior to intravenous administration at a constant rate of 20 ml/hr. […] Following the post-treatment biopsy, dogs received induction or rescue chemotherapy as determined by their primary attending veterinary oncologist and a short course of prophylactic antibiotics (amoxicillin). All dogs received a follow-up full clinical examination, CBC, CS and urinalysis one week post NBD peptide.

rats, mice and piglets = conditions: doses ranging from 0.75 mg/kg to 20 mg/kg; cited from earlier work
Excerpt: In this study, as a consequence of dru ...

[8] = Plasma pharmacokinetics after intravenous infusion (mass spectrometry)
Procedure: In this phase I dose escalation clinical trial, both treatment-naïve and relapsed dogs were enrolled. NBD peptide was administered according to a standard 3+3 trial design. The dose endpoint was the dose at which canonical NF-κB signaling was inhibited within malignant lymph nodes. Peptide was reconstituted to 50 mM in sterile DMSO and diluted in 20 mls of lactated Ringers solution immediately prior to intravenous administration at a constant rate of 20 ml/hr. Twenty-four hours post NBD peptide administration, excisional or Tru-cut biopsies of a peripheral malignant lymph node were taken for Western blot, qRT-PCR and histopathological analysis.
EDTA anti-coagulated blood samples were taken at 0, 30, 60, 90, 120, 240, 360 mins and 24 hours post infusion. Plasma was separated by centrifugation and stored at −80°C prior to pharmacokinetic analysis. Mass spectrometer analysis of NBD peptide in plasma samples was performed by Frontage Laboratories, Exton, PA and pharmacokinetic (PK) parameters were determined using WinNonlin v5.2 software. The lower limit of quantification (LLOQ) was set to 10 ng/ml however, in some instances the LLOQ was changed to 20 ng/ml because of potential interference in the samples.

malignant lymph nodes [9] = assay: Measureable tumor mass before and 24 h after peptide; assay type: in vivo, dog; conditions: 24 hours after NBD peptide; measurements available for 10 treated dogs
Procedure: as §4

[10] = one week after NBD peptide plus induction or rescue chemotherapy

Q: Which “inhibition of NF-κB target genes in the one dog that received 2 mg/kg (dog 11)” value ([1]; 2 mg/kg i.v., 24 hours after peptide, compared with the other dogs) does the source give for “NEMO Binding Domain (NBD) peptide [NBD peptide]” here?
A: most significant inhibition

Q: What about the “dogs in which the expression of 3 or more target genes was reduced” value ([1]; 24 hours after NBD peptide, six genes evaluated) of the same substance?
A: 6 out of 11

Q: And the “effect on tumor burden” value (malignant node)?
A: decreases tumor burden

Q: What about the “effect on cell survival” value ([2]; NBD peptide fused to AntP) of the same substance?
A: rapid apoptosis

Q: And the “effect on phosphorylation of IKK and IκBα” value ([2]; NBD peptide fused to the cell penetrating Antennapedia peptide (AntP))?
A: inhibits phosphorylation

Q: And the “dogs with a decrease in the expression of Cyclin D1” value (Cyclin D1)?
A: Eight out of eleven

Q: What about the “dogs with a trend towards an increase in apoptosis (TUNEL)” value (malignant lymph nodes [3]) of the same substance?
A: Five

Q: And the “acute or chronic toxicities at any dose evaluated” value ([4]; 0.5-2.0 mg/kg single i.v. dose, clinical, hematological and biochemical parameters)?
A: no significant acute or chronic toxicities

Q: What about the “safety of intravenous administration” value ([4]; <2 mg/kg i.v.) of the same substance?
A: safe

Q: And the “dogs that became drowsy and developed moderate tachycardia and hypertension during infusion” value ([4]; Group 1, 0.5 mg/kg i.v., three dogs, no premedication, mild, transient, resolved when infusion was discontinued)?
A: two

Q: What about the “additional dogs with transient hypertension” value ([4]; Group 2, 1 mg/kg i.v., premedicated with ondansetron and diphenhydramine) of the same substance?
A: one

Q: What about the “maximum tolerated dose of NBD peptide in dogs” value ([4]; doses 0.5-2.0 mg/kg i.v.) of the same substance?
A: not reached

Q: What about the “dogs with a statistically significant reduction in the number of Ki67+ cells” value (Ki67) of the same substance?
A: Four

Q: What about the “dogs that achieved clinical remission (CR)” value ([5]; NBD peptide plus chemotherapy, eleven dogs, including 5 dogs treated at first relapse) of the same substance?
A: Seven

Q: And the “dogs that survived greater than 16 months” value ([5]; after peptide administration and chemotherapy)?
A: three

Q: And the “dogs showing reductions in the phosphorylation status of IKK (pIKK:IKK)” value [6]?
A: 6/10 and Six out of ten

Q: What about the “dogs with significant but asymptomatic increases in liver values (ALT, ALKP, AST and GGT) one week later” value ([7]; Group 2, 1 mg/kg, dog also received L'asparaginase 24 hrs after peptide, values returned to baseline two weeks later) of the same substance?
A: One

Q: What about the “dogs with elevated ALKP prior to peptide that showed further increases in ALKP post treatment” value ([7]; all previously treated for relapsed lymphoma, one week after NBD peptide plus chemotherapy) of the same substance?
A: 4/11

Q: What about the “dogs with an increase in platelet count” value [7, 10] of the same substance?
A: 8/11

Q: And the “dogs with mild decreases in lymphocyte counts” value [7, 10]?
A: 9/11

Q: What about the “dogs with mild decreases in hematocrit” value ([7]; one week after NBD peptide plus induction or rescue chemotherapy, most values within the normal range) of the same substance?
A: 9/11

Q: What about the “tolerability of systemic administration” value (rats, mice and piglets) of the same substance?
A: well tolerated

Q: And the “plasma concentrations of NBD peptide at the doses studied” value ([8]; 0.5-2.0 mg/kg i.v.)?
A: very low

Q: What about the “NBD peptide in plasma after 60 mins” value ([8]; any dog, sampling up to 24 hours post infusion, LLOQ 10 or 20 ng/ml) of the same substance?
A: not detected; also recorded: undetectable

Q: And the “dogs with greater than 20% reduction in measureable tumor mass” value (malignant lymph nodes [9])?
A: Five out of 10
